Source: patent US20200138827A1, “SMALL MOLECULE MODULATORS OF HUMAN STING” (Curadev Pharma Limited, priority 2017, published 2020)

biological target: T1, WT/R232 STING protein (Homo sapiens, UniProt Q86WV6, H232R); experiment: Luciferase reporter assay in HEK293T-hSTING-Luciferase cells, WT/R232; format: cell-based; conditions: 20 hr stimulation, read-out: R232 Activity (EC50 range)
T1 construct: host or cells: HEK293T
Summary of the method: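 Clonal HEK293T cells stably expressing human STING R232 plus an ISRE/ISG54-driven luciferase reporter, 5×10^5 per well, stimulated with compounds for 20 h. Secreted luciferase in supernatant measured by luminescence; […].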

T1 sequence (Q86WV6 whole entry H232R): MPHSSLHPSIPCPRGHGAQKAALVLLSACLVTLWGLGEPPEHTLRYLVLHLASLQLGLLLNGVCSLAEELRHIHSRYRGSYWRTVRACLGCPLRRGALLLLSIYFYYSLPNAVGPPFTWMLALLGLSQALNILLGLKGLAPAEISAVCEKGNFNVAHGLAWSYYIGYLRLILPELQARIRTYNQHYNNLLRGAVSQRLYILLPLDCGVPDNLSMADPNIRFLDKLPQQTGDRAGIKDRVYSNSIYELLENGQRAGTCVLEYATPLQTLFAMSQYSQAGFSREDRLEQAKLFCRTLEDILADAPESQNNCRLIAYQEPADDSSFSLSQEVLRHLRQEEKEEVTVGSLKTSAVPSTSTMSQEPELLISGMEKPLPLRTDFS

| EC50 [µM] | Structure (SMILES) |
| --- | --- |
| > 10 | O=C(NCc1ccco1)c1ccc2c(c1)N(CCc1cccc(Cl)c1)C(=O)CS2 [Example 90, 4-(3-chlorophenethyl)-N-(furan-2-ylmethyl)-3-oxo-3,4-dihydro-2H-benzo[b-1,4]thiazine-6-carboxamide] |
| > 10 | O=C(NCc1ccco1)c1ccc2c(c1)N(Cc1ccccc1OC(F)(F)F)C(=O)CS2 [Example 91, N-(furan-2-ylmethyl)-3-oxo-4-(2-(trifluoromethoxy)benzyl)-3,4-dihydro-2H-benzo[b-1,4]thiazine-6-carboxamide] |
| > 10 | O=C(NCc1ccco1)c1ccc2c(c1)N(CCc1cccc(C(F)(F)F)c1)C(=O)CS2 [Example 92, N-(furan-2-ylmethyl)-3-oxo-4-(3-(trifluoromethyl)phenethyl)-3,4-dihydro-2H-benzo[b-1,4]thiazine-6-carboxamide] |
| > 10 | N#Cc1ccccc1CN1C(=O)CSc2ccc(C(=O)NCc3ccco3)cc21 [Example 94, 4-(2-cyanobenzyl)-N-(furan-2-ylmethyl)-3-oxo-3,4-dihydro-2H-benzo[b-1,4]thiazine-6-carboxamide] |
| > 10 | O=C(NCc1ccco1)c1ccc2c(c1)N(Cc1ccc(Cl)s1)C(=O)CS2 [Example 95, 4-((5-chlorothiophen-2-yl)methyl)-N-(furan-2-ylmethyl)-3-oxo-3,4-dihydro-2H-benzo[b-1,4]thiazine-6-carboxamide] |
| > 10 | Cc1nc(CN2C(=O)CSc3ccc(C(=O)NCc4ccco4)cc32)cs1 [Example 96, N-(furan-2-ylmethyl)-4-((2-methylthiazol-4-yl)methyl)-3-oxo-3,4-dihydro-2H-benzo[b-1,4]thiazine-6-carboxamide] |
| > 10 | O=C(NCc1ccco1)c1ccc2c(c1)N(Cc1cccc(C(F)(F)F)c1)C(=O)CS2 [Example 97, N-(furan-2-ylmethyl)-3-oxo-4-(3-(trifluoromethyl)benzyl)-3,4-dihydro-2H-benzo[b-1,4]thiazine-6-carboxamide] |
| > 10 | CN1CCCC(CN2C(=O)CSc3ccc(C(=O)NCc4ccco4)cc32)C1 (centres unmarked) [Example 98, N-(furan-2-ylmethyl)-4-((1-methylpiperidin-3-yl)methyl)-3-oxo-3,4-dihydro-2H-benzo[b-1,4]thiazine-6-carboxamide] |
| 1 to 10 | O=C(NCc1ccco1)c1ccc2c(c1)N(Cc1cc(F)ccc1Cl)C(=O)CS2 [Example 99, 4-(2-chloro-5-fluorobenzyl)-N-(furan-2-ylmethyl)-3-oxo-3,4-dihydro-2H-benzo[b-1,4]thiazine-6-carboxamide] |
| 1 to 10 | O=C(NCc1ccco1)c1ccc2c(c1)N(Cc1cc(F)ccc1F)C(=O)CS2 [Example 100, 4-(2,5-difluorobenzyl)-N-(furan-2-ylmethyl)-3-oxo-3,4-dihydro-2H-benzo[b-1,4]thiazine-6-carboxamide] |
| 1 to 10 | O=C(NCc1ccco1)c1ccc2c(c1)N(Cc1c(F)cccc1F)C(=O)CS2 [Example 101, 4-(2,6-difluorobenzyl)-N-(furan-2-ylmethyl)-3-oxo-3,4-dihydro-2H-benzo[b-1,4]thiazine-6-carboxamide] |
| 1 to 10 | O=C(NCc1ccco1)c1ccc2c(c1)N(Cc1cc(Cl)cc(C(F)(F)F)c1)C(=O)CS2 [Example 102, 4-(3-chloro-5-(trifluoromethyl)benzyl)-N-(furan-2-ylmethyl)-3-oxo-3,4-dihydro-2H-benzo[b-1,4]thiazine-6-carboxamide] |
| > 10 | O=C(NCc1ccco1)c1ccc2c(c1)N(CCS(=O)(=O)c1ccccc1)C(=O)CS2 [Example 103, N-(furan-2-ylmethyl)-3-oxo-4-(2-(phenylsulfonyl)ethyl)-3,4-dihydro-2H-benzo[b-1,4]thiazine-6-carboxamide] |
| > 10 | O=C(NCc1ccco1)c1ccc2c(c1)N(Cc1cn3ccsc3n1)C(=O)CS2 [Example 104, N-(furan-2-ylmethyl)-4-(imidazo[2,1-b]thiazol-6-ylmethyl)-3-oxo-3,4-dihydro-2H-benzo[b-1,4]thiazine-6-carboxamide] |
| > 10 | Cc1nnc(CN2C(=O)CSc3ccc(C(=O)NCc4ccco4)cc32)n1C [Example 105, 4-((4,5-dimethyl-4H-1,2,4-triazol-3-yl)methyl)-N-(furan-2-ylmethyl)-3-oxo-3,4-dihydro-2H-benzo[b-1,4]thiazine-6-carboxamide] |
| > 10 | O=C(NCc1ccco1)c1ccc2c(c1)N(Cc1ccccc1F)C(=O)CS2 [Example 106, 4-(2-fluorobenzyl)-N-(furan-2-ylmethyl)-3-oxo-3,4-dihydro-2H-benzo[b-1,4]thiazine-6-carboxamide] |
| 1 to 10 | O=C(NCc1cccs1)c1ccc2c(c1)N(Cc1c(F)cccc1Cl)C(=O)CS2 [Example 107, 4-(2-chloro-6-fluorobenzyl)-3-oxo-N-(thiophen-2-ylmethyl)-3,4-dihydro-2H-benzo[b-1,4]thiazine-6-carboxamide] |
| > 10 | O=C(NCc1ccccn1)c1ccc2c(c1)N(Cc1c(F)cccc1Cl)C(=O)CS2 [Example 108, 4-(2-chloro-6-fluorobenzyl)-3-oxo-N-(pyridin-2-ylmethyl)-3,4-dihydro-2H-benzo[b-1,4]thiazine-6-carboxamide] |
| > 10 | O=C(NCc1cccnc1)c1ccc2c(c1)N(Cc1c(F)cccc1Cl)C(=O)CS2 [Example 109, 4-(2-chloro-6-fluorobenzyl)-3-oxo-N-(pyridin-3-ylmethyl)-3,4-dihydro-2H-benzo[b-1,4]thiazine-6-carboxamide] |
| > 10 | O=C(NC(c1ccccc1)C1CCCCC1)c1ccc2c(c1)N(Cc1ccccc1F)C(=O)CS2 (centres unmarked) [Example 110, N-(cyclohexyl (phenyl)methyl)-4-(2-fluorobenzyl)-3-oxo-3,4-dihydro-2H-benzo[b][1,4] thiazine-6-carboxamide] |
| > 10 | O=C(NCc1ccco1)c1ccc2c(c1)N(Cc1ccccc1)C(=O)CS2 [Example 111, 4-benzyl-N-(furan-2-ylmethyl)-3-oxo-3,4-dihydro-2H-benzo[b-1,4]thiazine-6-carboxamide] |
| > 10 | O=C(NCc1c(F)cc(F)cc1F)c1ccc2c(c1)N(C(C(=O)O)c1ccccc1)C(=O)CS2 (centres unmarked) [Example 113, 2-(3-oxo-6-((2,4,6-trifluorobenzyl)carbamoyl)-2H-benzo[b][1,4]thiazin-4(3H)-yl)-2-phenylacetic acid] |
| < 1 | COc1cc(F)c(CN2C(=O)CSc3ccc(C(=O)NCc4c(F)cc(F)cc4F)cc32)c(F)c1 [Example 114, 4-(2,6-difluoro-4-methoxybenzyl)-3-oxo-N-(2,4,6-trifluorobenzyl)-3,4-dihydro-2H-benzo[b][1,4] thiazine-6-carboxamide] |
| < 1 | O=C(NCc1c(F)cc(F)cc1F)c1ccc2c(c1)N(Cc1c(F)cc(O)cc1F)C(=O)CS2 [Example 115, 4-(2,6-difluoro-4-hydroxybenzyl)-3-oxo-N-(2,4,6-trifluorobenzyl)-3,4-dihydro-2H-benzo[b][1,4] thiazine-6-carboxamide] |
| > 10 | COc1ccccc1CNC(=O)c1ccc2c(c1)N(Cc1ccccc1)C(=O)CS2 [Example 116, 4-benzyl-N-(2-methoxybenzyl)-3-oxo-3,4-dihydro-2H-benzo[b-1,4]thiazine-6-carboxamide] |
| > 10 | O=C(NCc1ccccc1Cl)c1ccc2c(c1)N(Cc1ccccc1)C(=O)CS2 [Example 117, 4-benzyl-N-(2-chlorobenzyl)-3-oxo-3,4-dihydro-2H-benzo[b-1,4]thiazine-6-carboxamide] |
